Counter-ions that a name gives are not always drawn. Like-named read-outs stand apart in the source and are kept apart here.
Key:
[1] = cited from earlier work
[2] = elevated pHs around 5.5; cited from earlier work
[3] = pH of ketamine formulations and ketamine HCl solutions; format: physicochemical
[4] = cited from earlier work; remark: listed apart in the source
[5] = cited from earlier work; remark: listed apart in the source
[6] = cited from earlier work; remark: listed apart in the source
[7] = cited from earlier work; remark: listed apart in the source
[8] = cited from earlier work; remark: listed apart in the source
[9] = rat, daily IV injections for 1 month; cited from earlier work

Compound: CC(O)COC[C@H]1O[C@@H]2O[C@H]3[C@H](O)[C@@H](O)[C@@H](O[C@H]4[C@H](O)[C@@H](O)[C@@H](O[C@H]5[C@H](O)[C@@H](O)[C@@H](O[C@H]6[C@H](O)[C@@H](O)[C@@H](O[C@H]7[C@H](O)[C@@H](O)[C@@H](O[C@H]8[C@H](O)[C@@H](O)[C@@H](O[C@H]1[C@H](O)[C@H]2O)O[C@@H]8COCC(C)O)O[C@@H]7COCC(C)O)O[C@@H]6COCC(C)O)O[C@@H]5COCC(C)O)O[C@@H]4COCC(C)O)O[C@@H]3COCC(C)O (stereo partly drawn) [HP-β-CD, hydroxypropyl-beta-cyclodextrin]
- amount found safe ([1]; in vivo): ~250 mg/kg/day

Compound: CNC1(c2ccccc2Cl)CCCCC1=O (centres unmarked) [ketamine HCl, ketamine hydrochloride]
- precipitation [2]: exhibit precipitation
- pH ([3]; 100 mg/mL (ketamine freebase equivalent) in water): around 4
- average pH ([3]; measured in USP bottles of ketamine 100 mg/mL): 3.74
- average pH ([3]; solutions formed from powdered ketamine HCl): 3.93

Compound: CNC1(c2ccccc2Cl)CCCCC1=O (centres unmarked) [ketamine, 2-(2-chlorophenyl)-2-(methylamino)cyclohexanone]
- Side Effects ([4]; Intramuscular): High
- Side Effects ([4]; Intranasal): High
- Side Effects ([4]; Intravenous): Moderate
- Side Effects ([4]; Oral): Moderate
- Side Effects ([4]; Subcutaneous): Low
- Side Effects ([4]; Sublingual): Moderate
- Bioavailability (grade) ([5]; Intramuscular): High
- Bioavailability ([5]; Intranasal): 25-50%
- Bioavailability (grade) ([5]; Intranasal): Low
- Bioavailability ([5]; Intravenous): 100%
- Bioavailability (grade) ([5]; Intravenous): Highest
- Bioavailability ([5]; Oral): 11-20%
- Bioavailability (grade) ([5]; Oral): Very Low
- Bioavailability ([5]; Subcutaneous): >90%
- Bioavailability (grade) ([5]; Subcutaneous): High
- Bioavailability ([5]; Sublingual): 29%
- Bioavailability (grade) ([5]; Sublingual): Low
- Metabolite Exposure ([6]; Intramuscular): Low
- Metabolite Exposure ([6]; Intranasal): High
- Metabolite Exposure ([6]; Intravenous): Low
- Metabolite Exposure ([6]; Subcutaneous): Low
- Metabolite Exposure ([6]; Sublingual): High
- increase in exposure to undesirable inflammatory metabolites ([6]; oral dosing to reach equivalence to a short IV or IM treatment): up to 9 fold
- increase in exposure to undesirable inflammatory metabolites ([6]; sublingual route): 3 fold

Compound: sulfobutyl-ether-beta-cyclodextrin [SBE-β-CD]
- solubility [7]: 600 mg/mL
- osmolality ([8]; 20% solution, degree of substitution 6.5): 785 mOsm/kg
- concentration iso-osmotic with blood and extracellular fluid ([8]; according to the manufacturer): 9.5-11.4%
- amount found safe ([1]; 6 months, humans older than 2 years): ~250 mg/kg/day
- tolerability ([1]; infusion rates 292 to 4375 mg/min): well-tolerated with no clinically relevant side effects or changes in renal biomarkers
- NOEL [9]: 80 mg/kg
